According to ChEMBL document CHEMBL5465560, “Selectivity Literature for EUbOPEN Chemogenomic Library” (2024):
Values belong to the molecule of their own block, whether it stands above or below them.

Assays:
[1] = target: T1, Tyrosine-protein kinase ZAP-70 (Homo sapiens) (UniProt P43403); test: Selectivity interaction (Kinase panel (literature)) EUB0001199aCl ZAP70; settings: at 1 µM
T1 sequence (whole entry): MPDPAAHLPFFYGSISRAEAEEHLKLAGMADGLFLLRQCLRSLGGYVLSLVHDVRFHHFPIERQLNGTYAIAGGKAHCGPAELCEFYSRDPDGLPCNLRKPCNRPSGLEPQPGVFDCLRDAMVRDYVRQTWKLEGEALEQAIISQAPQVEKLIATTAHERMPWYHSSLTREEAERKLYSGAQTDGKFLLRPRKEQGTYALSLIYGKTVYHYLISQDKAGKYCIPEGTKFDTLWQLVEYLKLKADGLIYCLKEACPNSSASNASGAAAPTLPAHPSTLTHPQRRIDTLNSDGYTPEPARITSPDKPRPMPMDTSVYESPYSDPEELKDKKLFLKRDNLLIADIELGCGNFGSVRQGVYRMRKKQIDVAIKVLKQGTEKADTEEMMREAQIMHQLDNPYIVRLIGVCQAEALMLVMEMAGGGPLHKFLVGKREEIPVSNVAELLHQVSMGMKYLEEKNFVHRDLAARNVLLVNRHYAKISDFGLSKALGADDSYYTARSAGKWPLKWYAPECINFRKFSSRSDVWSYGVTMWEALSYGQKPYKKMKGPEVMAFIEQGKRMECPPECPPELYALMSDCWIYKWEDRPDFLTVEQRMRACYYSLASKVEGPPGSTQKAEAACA

[2] = target: Protein-tyrosine kinase 2-beta (Homo sapiens) (UniProt Q14289); settings: at 10 µM
[3] = target: Phosphatidylinositol 4-kinase beta (Homo sapiens, UniProt Q9UBF8); test: Selectivity interaction (ActivX KiNativ screen (kinase selectivity in THP-1 cell lysates)) EUB0000639a PI4KB; format: subcellular; settings: lysate, at 1 µM
[4] = tested on: Epidermal growth factor receptor (Homo sapiens), P00533 [L858R,T790M]; test: (§1) Selectivity interaction (Ambit KINOMEscan and KiNATiv profiling in Jurkat cells) EUB0000090b EGFR; format: cell-based; settings: at 1 µM
[5] = target: Epidermal growth factor receptor (Homo sapiens, UniProt P00533); test: as §1; format: cell-based; settings: at 1 µM
[6] = tested on: Epidermal growth factor receptor (Homo sapiens), P00533 [L861Q]; test: as §1; format: cell-based; settings: at 1 µM
[7] = tested on: Epidermal growth factor receptor (Homo sapiens), P00533 [L858R]; test: as §1; format: cell-based; settings: at 1 µM
[8] = tested on: Epidermal growth factor receptor (Homo sapiens), P00533 [G719C]; test: as §1; format: cell-based; settings: at 1 µM
[9] = target: T2, NUAK family SNF1-like kinase 1 (Homo sapiens) (UniProt O60285); test: Selectivity interaction (Ambit KINOMEscan and KiNATiv profiling in Jurkat cells) EUB0000090b NUAK1; format: cell-based; settings: at 1 µM
T2 sequence (whole entry): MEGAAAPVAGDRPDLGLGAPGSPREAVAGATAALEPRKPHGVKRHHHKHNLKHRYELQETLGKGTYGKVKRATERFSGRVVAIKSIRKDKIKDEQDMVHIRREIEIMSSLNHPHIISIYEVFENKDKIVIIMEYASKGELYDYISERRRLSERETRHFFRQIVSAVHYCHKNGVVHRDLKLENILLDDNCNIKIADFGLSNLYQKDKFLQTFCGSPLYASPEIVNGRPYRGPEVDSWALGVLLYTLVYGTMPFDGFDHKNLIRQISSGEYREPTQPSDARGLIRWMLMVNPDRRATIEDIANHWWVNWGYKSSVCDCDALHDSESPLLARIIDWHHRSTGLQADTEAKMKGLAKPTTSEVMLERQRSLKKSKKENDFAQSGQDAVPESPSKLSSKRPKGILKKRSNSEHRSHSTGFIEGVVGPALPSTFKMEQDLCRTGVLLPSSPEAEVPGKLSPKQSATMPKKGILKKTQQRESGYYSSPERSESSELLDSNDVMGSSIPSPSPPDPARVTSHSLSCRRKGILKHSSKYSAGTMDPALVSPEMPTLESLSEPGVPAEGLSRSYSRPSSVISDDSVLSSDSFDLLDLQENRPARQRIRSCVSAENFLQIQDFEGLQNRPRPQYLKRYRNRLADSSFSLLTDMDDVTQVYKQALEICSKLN

[10] = target: Mitotic checkpoint serine/threonine-protein kinase BUB1 (Homo sapiens, UniProt O43683)
[11] = target: Tyrosine-protein kinase CSK (Homo sapiens) (UniProt P41240); test: Selectivity interaction (Kinase panel (KiNativ target engagement assay in Jurkat cells)) EUB0001635a CSK; format: cell-based; settings: at 1 µM
[12] = target: Serine/threonine-protein kinase Nek7 (Homo sapiens) (UniProt Q8TDX7); test: Selectivity interaction (Kinase panel (KiNativ target engagement assay in Jurkat cells)) EUB0001635a NEK7; format: cell-based; settings: Selectivity number of off-targets 0.0, Selectivity number of targets 233.0, Source Knowledge https://www.sciencedirect.com/science/article/pii/S2451945619300674?via%3Dihub, at 1 µM
[13] = target: T3, Myotonin-protein kinase (Homo sapiens) (UniProt Q09013); settings: at 10 µM
T3 sequence (whole entry): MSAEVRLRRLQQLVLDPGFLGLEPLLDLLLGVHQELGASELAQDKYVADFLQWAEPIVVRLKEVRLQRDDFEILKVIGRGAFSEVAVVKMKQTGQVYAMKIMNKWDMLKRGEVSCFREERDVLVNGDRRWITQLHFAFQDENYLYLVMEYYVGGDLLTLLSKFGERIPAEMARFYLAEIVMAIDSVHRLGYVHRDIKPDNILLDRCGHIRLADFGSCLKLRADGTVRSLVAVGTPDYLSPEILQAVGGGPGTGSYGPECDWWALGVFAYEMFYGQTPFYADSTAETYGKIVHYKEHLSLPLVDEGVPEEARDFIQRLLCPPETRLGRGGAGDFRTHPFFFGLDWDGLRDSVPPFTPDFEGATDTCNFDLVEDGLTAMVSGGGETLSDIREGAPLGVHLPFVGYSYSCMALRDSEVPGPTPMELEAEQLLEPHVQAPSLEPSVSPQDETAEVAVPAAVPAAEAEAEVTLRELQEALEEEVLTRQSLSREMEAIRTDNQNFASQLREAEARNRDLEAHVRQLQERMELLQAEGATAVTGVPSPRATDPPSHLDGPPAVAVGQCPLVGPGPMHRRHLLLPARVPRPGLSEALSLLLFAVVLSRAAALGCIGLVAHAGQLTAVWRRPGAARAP

[14] = target: Mitogen-activated protein kinase 10 (Homo sapiens, UniProt P53779); test: Selectivity interaction (KinomeScan (DiscoverX)) EUB0000618a MAPK10; settings: at 10 µM

Tyrosine-protein kinase CSK (Homo sapiens), sequence (P41240 2-450 limits assumed): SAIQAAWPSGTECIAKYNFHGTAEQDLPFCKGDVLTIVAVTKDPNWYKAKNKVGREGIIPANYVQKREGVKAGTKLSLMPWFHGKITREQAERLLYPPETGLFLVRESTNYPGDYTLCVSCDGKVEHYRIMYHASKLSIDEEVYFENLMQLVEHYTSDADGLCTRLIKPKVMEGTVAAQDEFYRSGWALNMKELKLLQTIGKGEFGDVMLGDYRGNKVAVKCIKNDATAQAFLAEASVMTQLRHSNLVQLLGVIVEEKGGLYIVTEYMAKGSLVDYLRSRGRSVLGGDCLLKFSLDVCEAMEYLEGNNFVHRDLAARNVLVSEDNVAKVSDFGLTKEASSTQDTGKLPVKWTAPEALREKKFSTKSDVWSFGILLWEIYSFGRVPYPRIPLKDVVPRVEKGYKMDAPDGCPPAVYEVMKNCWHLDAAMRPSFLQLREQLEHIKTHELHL
Epidermal growth factor receptor, sequence (P00533 whole entry): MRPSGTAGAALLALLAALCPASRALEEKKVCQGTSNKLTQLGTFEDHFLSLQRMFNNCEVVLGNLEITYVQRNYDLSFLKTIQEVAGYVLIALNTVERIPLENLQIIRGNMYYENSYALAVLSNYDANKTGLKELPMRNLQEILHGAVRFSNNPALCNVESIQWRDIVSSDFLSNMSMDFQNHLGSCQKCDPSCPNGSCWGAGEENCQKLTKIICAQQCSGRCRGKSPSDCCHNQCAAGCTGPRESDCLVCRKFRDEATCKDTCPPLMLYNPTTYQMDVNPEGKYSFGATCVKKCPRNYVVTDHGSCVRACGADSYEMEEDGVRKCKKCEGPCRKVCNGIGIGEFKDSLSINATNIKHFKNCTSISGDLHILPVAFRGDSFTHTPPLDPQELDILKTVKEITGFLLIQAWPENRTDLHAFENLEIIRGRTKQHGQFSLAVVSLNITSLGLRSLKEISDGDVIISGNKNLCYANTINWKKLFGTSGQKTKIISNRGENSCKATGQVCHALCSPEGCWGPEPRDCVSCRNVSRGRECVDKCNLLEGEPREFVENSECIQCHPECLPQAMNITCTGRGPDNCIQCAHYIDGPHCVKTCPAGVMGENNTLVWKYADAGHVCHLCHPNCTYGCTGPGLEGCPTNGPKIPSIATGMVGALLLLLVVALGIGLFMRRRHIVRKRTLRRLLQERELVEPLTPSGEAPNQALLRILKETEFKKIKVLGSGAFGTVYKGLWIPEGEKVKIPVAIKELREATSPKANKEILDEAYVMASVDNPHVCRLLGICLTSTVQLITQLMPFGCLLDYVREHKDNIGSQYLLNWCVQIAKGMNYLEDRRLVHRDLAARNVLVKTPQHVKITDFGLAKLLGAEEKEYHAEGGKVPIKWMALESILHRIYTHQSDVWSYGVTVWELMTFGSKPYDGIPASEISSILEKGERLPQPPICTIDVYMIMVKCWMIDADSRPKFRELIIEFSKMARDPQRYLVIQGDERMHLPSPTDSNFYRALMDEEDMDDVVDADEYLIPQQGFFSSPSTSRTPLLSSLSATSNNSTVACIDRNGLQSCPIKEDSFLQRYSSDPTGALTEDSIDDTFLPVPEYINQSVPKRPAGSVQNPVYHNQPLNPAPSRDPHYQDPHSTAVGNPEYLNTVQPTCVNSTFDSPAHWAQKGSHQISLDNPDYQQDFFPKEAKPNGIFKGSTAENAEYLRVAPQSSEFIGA
Protein-tyrosine kinase 2-beta (Homo sapiens), sequence (Q14289 whole entry, looked up): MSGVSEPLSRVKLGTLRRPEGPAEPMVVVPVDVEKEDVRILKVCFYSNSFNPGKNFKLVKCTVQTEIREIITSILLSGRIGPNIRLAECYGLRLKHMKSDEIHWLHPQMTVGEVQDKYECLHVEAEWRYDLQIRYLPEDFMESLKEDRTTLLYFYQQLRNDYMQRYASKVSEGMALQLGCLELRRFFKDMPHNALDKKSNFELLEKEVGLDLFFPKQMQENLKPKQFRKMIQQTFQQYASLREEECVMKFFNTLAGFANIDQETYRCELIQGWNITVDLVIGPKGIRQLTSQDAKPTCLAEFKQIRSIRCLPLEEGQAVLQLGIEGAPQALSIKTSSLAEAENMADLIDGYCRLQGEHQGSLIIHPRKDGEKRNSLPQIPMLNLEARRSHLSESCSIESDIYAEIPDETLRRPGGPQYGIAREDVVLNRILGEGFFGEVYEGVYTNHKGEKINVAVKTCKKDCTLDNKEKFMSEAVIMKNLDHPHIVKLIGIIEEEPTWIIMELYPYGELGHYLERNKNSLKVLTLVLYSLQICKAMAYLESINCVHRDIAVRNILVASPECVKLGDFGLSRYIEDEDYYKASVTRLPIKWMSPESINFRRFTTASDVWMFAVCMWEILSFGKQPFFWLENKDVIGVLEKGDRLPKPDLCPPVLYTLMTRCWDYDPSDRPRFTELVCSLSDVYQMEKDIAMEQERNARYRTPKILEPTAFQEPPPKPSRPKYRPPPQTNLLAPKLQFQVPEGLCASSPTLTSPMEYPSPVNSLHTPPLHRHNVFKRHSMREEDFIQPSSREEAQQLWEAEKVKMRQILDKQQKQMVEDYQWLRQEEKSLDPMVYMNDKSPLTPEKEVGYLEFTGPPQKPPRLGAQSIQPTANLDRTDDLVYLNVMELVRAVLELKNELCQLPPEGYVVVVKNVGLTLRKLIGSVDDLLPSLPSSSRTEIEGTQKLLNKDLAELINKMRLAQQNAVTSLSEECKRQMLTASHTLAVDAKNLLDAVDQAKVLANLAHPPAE
Serine/threonine-protein kinase Nek7 (Homo sapiens), sequence (Q8TDX7 whole entry, looked up): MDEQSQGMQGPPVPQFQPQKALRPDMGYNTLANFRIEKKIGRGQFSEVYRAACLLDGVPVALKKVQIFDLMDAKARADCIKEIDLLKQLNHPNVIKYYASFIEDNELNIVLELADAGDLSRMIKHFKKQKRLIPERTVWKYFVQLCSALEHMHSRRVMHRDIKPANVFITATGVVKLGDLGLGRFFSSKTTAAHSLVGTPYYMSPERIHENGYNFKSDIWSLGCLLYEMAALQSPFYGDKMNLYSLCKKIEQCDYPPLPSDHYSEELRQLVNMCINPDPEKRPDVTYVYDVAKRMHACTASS
Phosphatidylinositol 4-kinase beta, sequence (Q9UBF8 2-816 limits assumed): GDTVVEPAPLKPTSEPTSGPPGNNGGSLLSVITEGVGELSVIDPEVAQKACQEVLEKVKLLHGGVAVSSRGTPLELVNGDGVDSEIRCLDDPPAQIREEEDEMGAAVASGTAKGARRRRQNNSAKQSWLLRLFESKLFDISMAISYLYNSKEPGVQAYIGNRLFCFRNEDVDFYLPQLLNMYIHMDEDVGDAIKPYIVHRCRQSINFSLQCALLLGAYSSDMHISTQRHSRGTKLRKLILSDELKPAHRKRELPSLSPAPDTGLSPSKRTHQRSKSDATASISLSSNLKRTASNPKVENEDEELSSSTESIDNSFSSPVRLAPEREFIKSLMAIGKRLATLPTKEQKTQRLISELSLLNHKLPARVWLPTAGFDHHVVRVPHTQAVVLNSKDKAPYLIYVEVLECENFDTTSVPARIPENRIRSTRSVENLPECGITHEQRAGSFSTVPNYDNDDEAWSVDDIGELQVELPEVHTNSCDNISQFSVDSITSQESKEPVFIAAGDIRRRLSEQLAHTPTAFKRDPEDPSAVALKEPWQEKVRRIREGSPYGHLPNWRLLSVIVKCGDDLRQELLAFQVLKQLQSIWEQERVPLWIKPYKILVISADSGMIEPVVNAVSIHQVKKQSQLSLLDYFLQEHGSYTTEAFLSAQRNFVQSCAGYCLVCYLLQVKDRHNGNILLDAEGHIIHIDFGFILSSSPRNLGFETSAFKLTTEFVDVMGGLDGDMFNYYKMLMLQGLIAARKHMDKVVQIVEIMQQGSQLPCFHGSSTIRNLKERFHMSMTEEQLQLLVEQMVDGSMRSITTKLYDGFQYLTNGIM
Epidermal growth factor receptor (Homo sapiens), P00533 [L858R], sequence (P00533 whole entry L858R): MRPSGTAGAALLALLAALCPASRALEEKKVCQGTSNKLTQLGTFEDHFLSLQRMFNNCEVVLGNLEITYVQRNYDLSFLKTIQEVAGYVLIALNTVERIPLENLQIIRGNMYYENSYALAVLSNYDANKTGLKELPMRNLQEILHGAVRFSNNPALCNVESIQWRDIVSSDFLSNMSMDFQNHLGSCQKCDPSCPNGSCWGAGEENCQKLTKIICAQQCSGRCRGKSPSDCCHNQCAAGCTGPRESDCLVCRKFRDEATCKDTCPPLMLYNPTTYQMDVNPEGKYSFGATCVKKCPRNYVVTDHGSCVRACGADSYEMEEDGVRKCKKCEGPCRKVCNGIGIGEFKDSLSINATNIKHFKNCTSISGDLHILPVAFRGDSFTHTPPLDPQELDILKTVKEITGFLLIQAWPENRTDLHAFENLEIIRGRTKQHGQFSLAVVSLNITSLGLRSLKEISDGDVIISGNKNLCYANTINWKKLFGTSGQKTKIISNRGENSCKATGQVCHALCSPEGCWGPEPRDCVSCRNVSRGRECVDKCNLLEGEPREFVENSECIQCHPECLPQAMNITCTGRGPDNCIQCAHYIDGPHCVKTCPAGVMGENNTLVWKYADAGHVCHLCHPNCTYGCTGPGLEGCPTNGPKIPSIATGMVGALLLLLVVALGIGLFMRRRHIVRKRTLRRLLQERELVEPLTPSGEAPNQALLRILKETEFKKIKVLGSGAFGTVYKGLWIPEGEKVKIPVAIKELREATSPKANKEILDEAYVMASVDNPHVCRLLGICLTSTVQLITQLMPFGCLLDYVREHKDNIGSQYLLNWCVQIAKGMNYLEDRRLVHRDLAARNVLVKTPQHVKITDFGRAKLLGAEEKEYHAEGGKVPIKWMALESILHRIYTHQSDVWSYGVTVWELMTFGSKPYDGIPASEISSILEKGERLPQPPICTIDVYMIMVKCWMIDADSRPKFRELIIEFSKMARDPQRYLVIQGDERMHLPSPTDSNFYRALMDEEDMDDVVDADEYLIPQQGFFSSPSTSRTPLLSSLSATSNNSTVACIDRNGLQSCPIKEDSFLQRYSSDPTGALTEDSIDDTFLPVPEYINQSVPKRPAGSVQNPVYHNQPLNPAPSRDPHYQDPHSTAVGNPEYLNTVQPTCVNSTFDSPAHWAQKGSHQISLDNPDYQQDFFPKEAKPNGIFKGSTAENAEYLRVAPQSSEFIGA

SMILES: CCN(CC)CCCCNc1ncc2cc(-c3cc(OC)cc(OC)c3)c(NC(=O)NC(C)(C)C)nc2n1
% of control [2]: 100%

SMILES: CN(C)C/C=C/C(=O)Nc1ccc(C(=O)N2CCCC(Nc3ncc(Cl)c(-c4c[nH]c5ccccc45)n3)C2)cc1 (stereo not given)
% of control [4]: 90%
% of control [5]: 99%
% of control [6]: 71%
% of control [7]: 100%
% of control [8]: 88%
% of control [9]: 84%

SMILES: C=CC(=O)Nc1ccc(C(=O)Nc2[nH]nc3c2CN(C(=O)N[C@H](CN(C)C)c2ccccc2)C3(C)C)cc1
% of engagement ([11]; Selectivity number of off-targets 0.0, Selectivity number of targets 233.0, Source Knowledge https://www.sciencedirect.com/science/article/pii/S2451945619300674?via%3Dihub): -7.9%
% of engagement [11]: -8.1%
% of engagement [12]: -12.5%

SMILES: Cc1cc([C@@H](C)Nc2ccccc2C(=O)O)c2nc(N3CCOCC3)cc(=O)n2c1 [AZD-6482]
% of control [13]: 100%

SMILES: O[C@H]1CC[C@H](Nc2ncc3nc(Nc4c(F)cc(F)cc4F)n([C@H]4CCOC4)c3n2)CC1
% of control [14]: 0%

The remaining lines, values ahead:

% of inhibition [1]: 6%
SMILES: CN1Cc2nccc(-c3cn(C)nc3-c3ccc(F)cc3)c2C1=O

% of inhibition [3]: -19.1%
SMILES: CC[C@@H]1[C@H](F)C(=O)N[C@@H]1COc1nccc2cc(C(N)=O)c(OC)cc12 [ZIMLOVISERTIB]

IC50 [10]: > 10 µM
SMILES: CCc1cccc(CC)c1NC(=O)c1nn(C)c2c1CCc1cnc(Nc3ccc(C(=O)NC4CCN(C)CC4)cc3OC(F)(F)F)nc1-2
